Measured values from US11369657B2, “Small molecule polypeptide for preventing and restraining inflammation and application of same” (SHANGHAI FIRST PEOPLE'S HOSPITAL, priority 2011, dated 2022).
“Also recorded” adds a separate entry of the source. Peptide text beside a SMILES is read from it.

Experiments:
[1] = system: ocular inflammation; experiment: Inhibiting effect of derived polypeptides on ocular inflammation according to Examples 2-3
Procedure: (§1) Derived Polypeptides were prepared as follows. Polypeptides were prepared according to the method in Example 1, and the inhibiting effect of the polypeptides on ocular inflammation was determined according to Examples 2-3.

[2] = system: uveitis in rats; experiment: LPS-induced uveitis in rats, intravitreal injection of polypeptide; format: in vivo, rat; conditions: for protein concentration in rat aqueous humor / exuded cells count in rat anterior chamber / aqueous humor: 24 hours after LPS injection, vs LPS+PBS group; for protein concentration in rat aqueous humor: BCA method, LS22 intravitreally; for exuded cells count in rat anterior chamber / aqueous humor: LS22 10, 50 or 100 μg intravitreally
Procedure: 8-week old male wistar rats were randomly divided into 5 groups with 10 rats for each, which are blank+PBS, LPS+PBS group, LPS+LS22 10 μg group, LPS+LS22 50 μg group, LPS+LS 22 100 μg group. 0.15 ml of pentobarbital (5.47 g/100 ml normal saline) was intraperitoneally injected into the rats for anesthesia. 100 μl of LPS (2 μg/μl) was subcutaneously injected into the right hindpaw of rats both in treating group and positive control group. An equal volume of normal saline was injected into the same position of the rats in blank+PBS group. 5% tropicamide and 1% tetracaine was dropped on the eye for mydriasis and local anesthesia. Under operating microscope, 10 μl of polypeptide or PBS of equal volume was intravitreally injected of bilateral eyes. The pars plana was vertically punctured by a 29-gauge microsyringe at 1 mm from corneal limbus and the vitreous cavity was reached. The drug liquid was then injected into the center of the vitreous cavity under direct vision and the needle was pulled out quickly after remaining for a few seconds. All above steps were conducted aseptically.
24 hours after LPS was injected, 6 rats in each experimental group were subjected to anterior chamber puncture by 30 G needle under deep anesthesia, and then bilateral aqueous humor was collected. Other 4 rats were sacrificed by cervical dislocation and the eyeballs were taken and immobilized.
The aqueous humor sample was diluted to 1:5 by trypan blue and then added into hemocytometer for manual counting under optical microscope, and total protein concentration was determined by BCA method.
The eyeballs were taken and immobilized by neutral formaldehyde (10%) and stored at 4° C. The sample was embedded into paraffin, cut into sagittal slices with the thickness of 5 μm, and then subjected to HE staining. The iris and ciliary body, anterior chamber, vitreous body and retina of the eyeballs were observed under optical microscope. The exuded cells in anterior chamber and vitreous cavity were counted by the same pathologist.
The experiment date was shown as x±s. A one-way ANOVA was used to compare the exuded cells and total protein concentration between these groups, and P<0.05 represents statistical significance.

[3] = system: RAW264.7 cells; experiment: Cell viability assay (MTS); format: cell-based, mouse; conditions: RAW264.7 cells co-incubated 24 hours
Procedure: RAW264.7 cells were placed into a 96-well plate for 24-hour adherent culture, and then peptides with different concentrations were added into each well and co-cultured for another 24 hours, while no treatment was taken to the control group. 20 μl of MTS solution was added into each well after 24 hours and cultured for another 3 hours. The culture plate was taken to determine the absorbance of each well at 490 nm.
(§2) The experiment date was shown as x±s. A SPSS 11.0 statistical package was used for statistic analysis and a one-way ANOVA was used to compare RAW264.7 cell viability results, TNF-α and IL-6 level between the groups, and P<0.05 represents statistical significance.

[4] = system: TNF-α; experiment: TNF-α level in supernatant of LPS-stimulated RAW264.7 cells (ELISA); format: cell-based, mouse; conditions: 0.1-10 μM LS22 pretreatment 30 min, LPS 100 ng/mL 24 hours
Procedure: (§3) Mouse RAW264.7 cells were inoculated on the 24-well cell culture plate (400 μl/well). RAW264.7 was pretreated with 0.1-10 μM of LS22 for 30 min, and then LPS (100 ng/mL) was added and co-incubated for 24 hours. Cell supernatant in each well was collected and TNF-α and IL-6 level was determined by ELISA kits.
as §2, §1

[5] = system: IL-6; experiment: IL-6 level in supernatant of LPS-stimulated RAW264.7 cells (ELISA); format: cell-based, mouse; conditions: 0.1-10 μM LS22 pretreatment 30 min, LPS 100 ng/mL 24 hours
Procedure: as §3, §2, §1

[6] = Water solubility of the synthesized powder; format: physicochemical; conditions: white powder
Procedure: 7. 120 mg of polypeptide LS22 was obtained as white powder with good water solubility (purification >95%) and then sealed and stored for use at −20° C.

| Compound | anti-inflammation effect ([1]; derived polypeptides, 10 μg group or 10 μM) | anti-inflammation effect compared with LS22 ([1]; weaker than LS22) | protein concentration in rat aqueous humor [2] | protein concentration in rat aqueous humor ([2]; listed as LSS) | exuded cells count in rat anterior chamber / aqueous humor [2] | exuded cells count in rat anterior chamber / aqueous humor ([2]; listed as LSS) | inflammatory cells in tissues (histopathologic examination) ([2]; HE staining, anterior chamber, ciliary body, posterior vitreous cavity, after LPS injection) | inhibition of uveitis ([2]; rats, LPS-induced) | toxicity to the cells [3] | cell viability compared with the control group ([3]; MTS) | LPS-induced TNF-α level in cell supernatant [4] | LPS-induced IL-6 level in cell supernatant [5] | water solubility [6] |
| --- | --- | --- | --- | --- | --- | --- | --- | --- | --- | --- | --- | --- | --- |
| Polypeptide 7: sequence as set forth by SEQ ID NO.: 5 (ALQSLNLSENGLSLDAVLGLV) | exhibits an anti-inflammation effect to some extent | about 30% | – | – | – | – | – | – | – | – | – | – | – |
| CC[C@H](C)[C@H](NC(=O)[C@H](CO)NC(=O)[C@H](CC(N)=O)NC(=O)[C@H](Cc1c[nH]cn1)NC(=O)[C@H](CO)NC(=O)[C@H](CC(C)C)NC(=O)[C@H](CC(=O)O)NC(=O)[C@@H](N)CC(C)C)C(=O)N[C@@H](CO)C(=O)N[C@@H](CCC(N)=O)C(=O)N[C@@H](CCC(=O)O)C(=O)N[C@@H](CO)C(=O)N[C@@H](C)C(=O)N[C@@H](CC(C)C)C(=O)N[C@@H](Cc1ccc(O)cc1)C(=O)N[C@@H](CC(C)C)C(=O)N[C@@H](CC(C)C)C(=O)N[C@@H](CCC(=O)O)C(=O)N[C@H](C(=O)N[C@@H](CC(C)C)C(=O)N1CCC[C@H]1C(=O)N[C@@H](CO)C(=O)O)[C@@H](C)O [LS22] (H-LDLSHNSISQESALYLLETLPS-OH; N-terminus assumed) | – | – | remarkably decreased | significantly reduced | remarkably reduced | significantly reduced | greatly reduced; also recorded: significantly reduced | significantly inhibited uveitis | no toxicity was observed | no statistically significant difference | significantly inhibited; also recorded: remarkably inhibited | significantly inhibited; also recorded: remarkably inhibited | good |
